Reference: patent publication EP4603105A1, “PHARMACEUTICAL COMPOSITION CONTAINING CYCLIC COMPOUND HAVING SELECTIVE KRAS INHIBITORY EFFECT AGAINST HRAS AND NRAS” (CHUGAI SEIYAKU KABUSHIKI KAISHA, priority 2022, dated 2024)
pIC50, pKd: −log10 of the molar value.

Experiments:
[1] = molecular target: GDP-bound KRAS wild-type protein (Homo sapiens, UniProt P01116); test: Binding to KRAS by surface plasmon resonance (SPR), dissociation constant KD; details: 1:1 binding model
Procedure, shortened: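 Compound binding is evaluated by SPR single-cycle kinetics, with concentrations added intermittently from low to high for 75 s each. Target surfaces carry GDP-loaded biotinylated Avi-RAS at about 100–300 RU, regenerated after each cycle; temperature 30°C. A 1:1 binding model gives KD.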

[2] = molecular target: GDP-bound NRAS wild-type protein (Homo sapiens, UniProt P01111); test: Binding to NRAS by surface plasmon resonance (SPR), KD and KD ratio to KRAS; details: ratio of KD for GDP-bound NRAS wild-type protein to KD for KRAS
Procedure, shortened: (§1)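 SPR, 30°C: Avi-biotin RAS·GDP captured via Biotin CAPture (~100–300 RU); running buffer HBS pH 7.4, 1 mM DTT, 10 mM MgCl2, 0.01% Tween 20, 10 µM GDP, 4% DMSO. Single-cycle kinetics, 100 µL/min, 75 s injections; 1:1 model → KD.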

[3] = molecular target: HRAS wild-type protein (Homo sapiens, UniProt P01112); test: Binding to HRAS by surface plasmon resonance (SPR), KD and KD ratio to KRAS; details: ratio of KD for HRAS wild-type protein to KD for KRAS
Procedure, shortened: as §1

[4] = system: human lung cancer strain NCI-H441; test: NCI-H441 cell proliferation inhibitory activity (CellTiter-Glo, 4 days); type: cell-based; details: NCI-H441 cells, 4 days, read-out: NCl-H441 IC50
Procedure, shortened: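 Proliferation was scored by […] measured after the reagent was added to cultures kept at 37°C in 5% carbon dioxide.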

Sequence of GDP-bound KRAS wild-type protein (P01116 1-188 isoform P01116-2): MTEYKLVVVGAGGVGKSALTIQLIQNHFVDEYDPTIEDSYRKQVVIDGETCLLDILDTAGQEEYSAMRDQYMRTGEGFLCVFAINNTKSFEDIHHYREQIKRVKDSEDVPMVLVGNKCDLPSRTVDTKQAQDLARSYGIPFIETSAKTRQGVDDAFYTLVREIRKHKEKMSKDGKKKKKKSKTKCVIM
Sequence of GDP-bound NRAS wild-type protein (P01111 whole entry): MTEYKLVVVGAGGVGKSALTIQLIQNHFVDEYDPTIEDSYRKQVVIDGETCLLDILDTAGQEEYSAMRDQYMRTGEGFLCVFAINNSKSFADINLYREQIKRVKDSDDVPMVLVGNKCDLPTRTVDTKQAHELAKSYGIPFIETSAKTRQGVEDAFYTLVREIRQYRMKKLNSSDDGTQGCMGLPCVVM
Sequence of HRAS wild-type protein (P01112 whole entry): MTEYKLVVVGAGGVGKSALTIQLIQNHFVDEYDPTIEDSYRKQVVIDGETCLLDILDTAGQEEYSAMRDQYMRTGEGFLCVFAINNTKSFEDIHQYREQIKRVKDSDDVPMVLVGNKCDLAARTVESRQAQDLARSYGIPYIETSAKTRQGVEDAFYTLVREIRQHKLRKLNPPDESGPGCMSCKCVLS

| SMILES | pKd [1] | NRAS /KRAS [2] | HRAS /KRAS [3] | pIC50 [4] |
| --- | --- | --- | --- | --- |
| CCC[C@H]1C(=O)N[C@@H]([C@@H](C)CC)C(=O)N(C)CC(=O)N(C)[C@H]2C/C=C\CCN(C2=O)[C@@H](Cc2ccc(C)cc2)C(=O)N(C)CC(=O)N[C@@H](CCc2ccc(Cl)c(Cl)c2)C(=O)N2C[C@H](OCC)C[C@H]2C(=O)NC2(CC(C)(C)C2)C(=O)N(C)[C@@H](CC(C)(C)C)C(=O)N(C)[C@H](C(=O)N(C)C)CC(=O)N1C [PP2714] | 9.60 | A (a compound having 10 or more and less than 20 is denoted as A) | A (a compound having 10 or more and less than 20 is denoted as A) | 7.88 |
| CCC[C@H]1C(=O)N[C@@H]([C@@H](C)CC)C(=O)N(C2CC2)CC(=O)N(C)[C@H]2C/C=C\CCN(C2=O)[C@@H](Cc2ccc(C)cc2)C(=O)N(C)CC(=O)N[C@@H](CCc2cc(F)c(C(F)(F)F)c(F)c2)C(=O)N2C[C@H](OCC)C[C@H]2C(=O)NC2(CC(C)(C)C2)C(=O)N(C)[C@@H](CC(C)(C)C)C(=O)N(C)[C@H](C(=O)N(C)C)CC(=O)N1C [PP2718] | 9.48 | A (a compound having 10 or more and less than 20 is denoted as A) | A (a compound having 10 or more and less than 20 is denoted as A) | 8.12 |
| CCOC[C@H]1C(=O)N[C@@H]([C@@H](C)CC)C(=O)N(C2CC2)CC(=O)N(C)[C@H]2C/C=C\CCN(C2=O)[C@@H](Cc2ccc(C)cc2)C(=O)N(C)CC(=O)N[C@@H](CCc2cc(F)c(C(F)(F)F)c(F)c2)C(=O)N2C[C@H](OCC)C[C@H]2C(=O)NC2(CC(C)(C)C2)C(=O)N(C)[C@@H](CC(C)(C)C)C(=O)N(C)[C@H](C(=O)N(C)C)CC(=O)N1C [PP2720] | 9.46 | A (a compound having 10 or more and less than 20 is denoted as A) | A (a compound having 10 or more and less than 20 is denoted as A) | 8.11 |
| CCC[C@H]1C(=O)N[C@@H]([C@@H](C)CC)C(=O)N(C2CC2)CC(=O)N(C)[C@H]2C/C=C\CCN(C2=O)[C@@H](Cc2ccc(C)cc2)C(=O)N(C)CC(=O)N[C@@H](CCc2ccc(C(F)(F)F)c(OC)c2)C(=O)N2C[C@H](OCC)C[C@H]2C(=O)NC2(CC(C)(C)C2)C(=O)N(C)[C@@H](CC(C)(C)C)C(=O)N(C)[C@H](C(=O)N(C)C)CC(=O)N1C [PP2722] | 9.40 | B (a compound having 3 or more and less than 10 is denoted as B) | B (a compound having 3 or more and less than 10 is denoted as B) | 7.86 |
| CCC[C@H]1C(=O)N[C@@H]([C@@H](C)CC)C(=O)N(C2CC2)CC(=O)N(C)[C@H]2C/C=C\CCN(C2=O)[C@@H](Cc2ccc(C)cc2)C(=O)N(C)CC(=O)N[C@@H](CCc2ccc(Cl)c(Cl)c2)C(=O)N2C[C@H](OCC)C[C@H]2C(=O)NC2(CC(C)(C)C2)C(=O)N(C)[C@@H](CC(C)(C)C)C(=O)N(C)[C@H](C(=O)N(C)C)CC(=O)N1C [PP2726] | 8.96 | AA (a compound having 20 or more is denoted as AA) | A (a compound having 10 or more and less than 20 is denoted as A) | 7.29 |
| CCC[C@H]1C(=O)N[C@@H]([C@@H](C)CC)C(=O)N(C)CC(=O)N(C)[C@H]2C/C=C\CCN(C2=O)[C@@H](Cc2ccc(C(F)(F)F)cc2)C(=O)N(C)CC(=O)N[C@@H](CCc2ccc(Cl)c(Cl)c2)C(=O)N2C[C@H](OCC)C[C@H]2C(=O)NC2(CC(C)(C)C2)C(=O)N(C)[C@@H](CC(C)(C)C)C(=O)N(C)[C@H](C(=O)N(C)C)CC(=O)N1C [PP2738] | 9.77 | AA (a compound having 20 or more is denoted as AA) | A (a compound having 10 or more and less than 20 is denoted as A) | 8.07 |
| CCOC[C@H]1C(=O)N[C@@H]([C@@H](C)CC)C(=O)N(C)CC(=O)N(C)[C@H]2C/C=C\CCN(C2=O)[C@@H](Cc2ccc(C(F)(F)F)cc2)C(=O)N(C)CC(=O)N[C@@H](CCc2ccc(Cl)c(Cl)c2)C(=O)N2C[C@H](OCC)C[C@H]2C(=O)NC2(CC(C)(C)C2)C(=O)N(C)[C@@H](CC(C)(C)C)C(=O)N(C)[C@H](C(=O)N(C)C)CC(=O)N1C [PP2740] | 9.77 | AA (a compound having 20 or more is denoted as AA) | A (a compound having 10 or more and less than 20 is denoted as A) | 7.62 |
| CCC[C@H]1C(=O)N[C@@H]([C@@H](C)CC)C(=O)N(C2CC2)CC(=O)N(C)[C@H]2C/C=C\CCN(C2=O)[C@@H](Cc2ccc(C(F)(F)F)cc2)C(=O)N(C)CC(=O)N[C@@H](CCc2ccc(C(F)(F)F)c(OC)c2)C(=O)N2C[C@H](OCC)C[C@H]2C(=O)NC2(CC(C)(C)C2)C(=O)N(C)[C@@H](CC(C)(C)C)C(=O)N(C)[C@H](C(=O)N(C)C)CC(=O)N1C [PP2746] | 9.55 | A (a compound having 10 or more and less than 20 is denoted as A) | A (a compound having 10 or more and less than 20 is denoted as A) | 7.99 |
| CCO[C@@H]1C[C@H]2C(=O)NC3(CC(C)(C)C3)C(=O)N(C)[C@@H](CC(C)(C)C)C(=O)N(C)[C@H](C(=O)N(C)C)CC(=O)N(C)[C@@H](COC)C(=O)N[C@@H]([C@@H](C)CC)C(=O)N(C3CC3)CC(=O)N(C)[C@H]3C/C=C\CCN(C3=O)[C@@H](Cc3ccc(C(F)(F)F)cc3)C(=O)N(C)CC(=O)N[C@@H](CCc3ccc(C(F)(F)F)c(OC)c3)C(=O)N2C1 [PP2748] | 9.70 | A (a compound having 10 or more and less than 20 is denoted as A) | A (a compound having 10 or more and less than 20 is denoted as A) | 8.15 |
| CCC[C@H]1C(=O)N[C@@H]([C@@H](C)CC)C(=O)N(C)CC(=O)N(C)[C@H]2C/C=C\CCN(C2=O)[C@@H](Cc2ccc(C)cc2)C(=O)N(C)CC(=O)N[C@@H](CCc2cc(F)c(C(F)(F)F)c(F)c2)C(=O)N2C[C@H](OCC)C[C@H]2C(=O)NC2(CC(C)(C)C2)C(=O)N(C)[C@@H](CC2CCC2)C(=O)N(C)[C@H](C(=O)N(C)C)CC(=O)N1C [PP2751] | 9.07 | A (a compound having 10 or more and less than 20 is denoted as A) | A (a compound having 10 or more and less than 20 is denoted as A) | 7.41 |
| CCCOC[C@H]1C(=O)N[C@@H]([C@@H](C)CC)C(=O)N(C)CC(=O)N(C)[C@H]2C/C=C\CCN(C2=O)[C@@H](Cc2ccc(C)cc2)C(=O)N(C)CC(=O)N[C@@H](CCc2cc(F)c(C(F)(F)F)c(F)c2)C(=O)N2C[C@H](OCC)C[C@H]2C(=O)NC2(CC(C)(C)C2)C(=O)N(C)[C@@H](CC2CCC2)C(=O)N(C)[C@H](C(=O)N(C)C)CC(=O)N1C [PP2752] | 8.92 | A (a compound having 10 or more and less than 20 is denoted as A) | A (a compound having 10 or more and less than 20 is denoted as A) | 7.15 |
| CCC[C@H]1C(=O)N[C@@H]([C@@H](C)CC)C(=O)N(C)CC(=O)N(C)[C@H]2C/C=C\CCN(C2=O)[C@@H](Cc2ccc(C)cc2)C(=O)N(C)CC(=O)N[C@@H](CCc2ccc(C(F)(F)F)c(OC)c2)C(=O)N2C[C@H](OCC)C[C@H]2C(=O)NC2(CC(C)(C)C2)C(=O)N(C)[C@@H](CC2CCC2)C(=O)N(C)[C@H](C(=O)N(C)C)CC(=O)N1C [PP2753] | 9.01 | A (a compound having 10 or more and less than 20 is denoted as A) | B (a compound having 3 or more and less than 10 is denoted as B) | 7.28 |
| CCC[C@H]1C(=O)N[C@@H]([C@@H](C)CC)C(=O)N(C)CC(=O)N(C)[C@H]2C/C=C\CCN(C2=O)[C@@H](Cc2ccc(C)cc2)C(=O)N(C)CC(=O)N[C@@H](CCc2ccc(Cl)c(Cl)c2)C(=O)N2C[C@H](OCC)C[C@H]2C(=O)NC2(CC(C)(C)C2)C(=O)N(C)[C@@H](CC2CCC2)C(=O)N(C)[C@H](C(=O)N(C)C)CC(=O)N1C [PP2755] | 9.25 | A (a compound having 10 or more and less than 20 is denoted as A) | A (a compound having 10 or more and less than 20 is denoted as A) | 7.45 |
| CCOC[C@H]1C(=O)N[C@@H]([C@@H](C)CC)C(=O)N(C2CC2)CC(=O)N(C)[C@@H]2C/C=C\CCN(C2=O)[C@@H](Cc2ccc(C)cc2)C(=O)N(C)CC(=O)N[C@@H](CCc2ccc(C(F)(F)F)c(OC)c2)C(=O)N2C[C@H](OCC)C[C@@H]2C(=O)NC2(CC(C)(C)C2)C(=O)N(C)[C@H](CC2CCC2)C(=O)N(C)[C@H](C(=O)N(C)C)CC(=O)N1C [PP2760] | 8.32 | A (a compound having 10 or more and less than 20 is denoted as A) | B (a compound having 3 or more and less than 10 is denoted as B) | 6.84 |
